Experimental data taken from article PMC5063960, “N-acetylglucosamine sensing by a GCN5-related N-acetyltransferase induces transcription via chromatin histone acetylation in fungi” (Nature Communications, 2016).

Target: T1, Ngs1 (Candida albicans, UniProt A0A1D8PRM0)
T1 construct: full length (963 aa), N-terminal 3xFLAG tag, expressed from NGS1 promoter in C. albicans ngs1 mutant; protein extract
Test: GlcNAc-agarose pull-down from protein extract, competition with free GlcNAc, anti-FLAG Western blot
Assay type: binding
Conditions: 100 mM free GlcNAc as competitor; 4 °C overnight; GH3 homology domain site

T1 sequence (A0A1D8PRM0 entry or part of it): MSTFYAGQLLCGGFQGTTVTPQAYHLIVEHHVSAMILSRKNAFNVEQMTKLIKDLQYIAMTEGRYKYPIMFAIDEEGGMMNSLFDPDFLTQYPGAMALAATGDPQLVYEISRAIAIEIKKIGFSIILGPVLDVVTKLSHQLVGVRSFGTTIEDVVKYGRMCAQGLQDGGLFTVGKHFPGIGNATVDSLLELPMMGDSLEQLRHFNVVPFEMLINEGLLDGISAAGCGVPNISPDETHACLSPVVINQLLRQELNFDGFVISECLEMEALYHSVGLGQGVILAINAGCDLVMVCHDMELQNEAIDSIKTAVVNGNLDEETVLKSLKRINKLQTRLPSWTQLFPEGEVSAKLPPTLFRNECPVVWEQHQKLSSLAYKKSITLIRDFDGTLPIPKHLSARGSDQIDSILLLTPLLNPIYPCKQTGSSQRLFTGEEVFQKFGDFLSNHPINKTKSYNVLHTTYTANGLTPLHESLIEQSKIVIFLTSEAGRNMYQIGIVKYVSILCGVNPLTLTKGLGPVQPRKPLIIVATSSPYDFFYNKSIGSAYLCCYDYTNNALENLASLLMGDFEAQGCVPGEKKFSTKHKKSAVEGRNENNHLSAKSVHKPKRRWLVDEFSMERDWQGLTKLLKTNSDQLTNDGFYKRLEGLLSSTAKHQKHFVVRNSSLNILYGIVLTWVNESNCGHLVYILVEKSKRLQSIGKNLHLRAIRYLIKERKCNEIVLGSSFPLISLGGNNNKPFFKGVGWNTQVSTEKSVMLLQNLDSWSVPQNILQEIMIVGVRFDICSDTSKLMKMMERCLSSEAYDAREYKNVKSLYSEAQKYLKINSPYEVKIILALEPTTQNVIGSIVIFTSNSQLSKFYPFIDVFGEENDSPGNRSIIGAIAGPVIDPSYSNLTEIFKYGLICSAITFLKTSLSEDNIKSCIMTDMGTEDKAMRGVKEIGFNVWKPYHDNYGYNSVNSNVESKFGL

SMILES: CC(=O)N[C@H]1C(O)O[C@H](CO)[C@@H](O)[C@@H]1O (stereo partly shown) [GlcNAc]
- GlcNAc-agarose pull-down from protein extract, competition with free GlcNAc, ant: The binding of GlcNAc-agarose with FLAG-Ngs1 was greatly reduced when free GlcNAc was added
